{"source": "paper PMC5834611", "about": "“A mechanism for CO regulation of ion channels” (Nature Communications, 2018)", "key": {"SUR2A [1]": {"biological_target": "T1, SUR2A (Rattus norvegicus, UniProt Q63563)", "T1 construct": "gene Abcc9; residues S615-L933 (SUR2A^615–933; CXXHX16H motif and NBD1)", "T1 sequence (Q63563 615-933)": "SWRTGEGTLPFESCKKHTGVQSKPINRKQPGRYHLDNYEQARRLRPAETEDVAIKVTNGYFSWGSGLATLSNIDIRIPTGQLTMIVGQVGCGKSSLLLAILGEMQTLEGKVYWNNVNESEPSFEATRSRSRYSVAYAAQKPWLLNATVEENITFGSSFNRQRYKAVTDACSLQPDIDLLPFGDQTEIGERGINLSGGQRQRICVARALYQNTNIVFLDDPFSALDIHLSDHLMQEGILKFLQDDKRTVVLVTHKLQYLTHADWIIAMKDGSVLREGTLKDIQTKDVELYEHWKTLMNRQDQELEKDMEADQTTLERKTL", "experiment": "UV-vis absorption titration of purified protein; koff by heme transfer to apo-myoglobin", "type": "binding"}, "SUR2A [2]": {"biological_target": "T1, SUR2A", "experiment": "spectrophotometric titration; stopped-flow, resonance Raman, ultrafast spectroscopy", "type": "binding"}}}
{"compound": "C=CC1=C(C)C2=Cc3c(C=C)c(C)c4[n]3[Fe]([Cl])[n]3c(c(C)c(CCC(=O)O)c3=CC3=NC(=C4)C(C)=C3CCC(=O)O)=CC1=N2", "note": "[hemin]", "values": [{"measurement": "Kd", "setting": "SUR2A [1]", "result": "8 ± 0.6", "unit": "µM"}]}
{"compound": "[C-]#[O+]", "note": "[carbon monoxide]", "values": [{"measurement": "Kd", "setting": "SUR2A [2]", "result": "0.6 ± 0.3", "unit": "µM"}]}
